{"source": "patent US20100003711A1", "about": "“Methods to identify therapeutic agents” (THE SCRIPPS RESEARCH INSTITUTE, priority 2005, published 2010)", "key": {"[1]": {"tested_on": "THP-1 monocytes", "assay": "Monocyte morphology changes (differentiation into macrophages)", "type": "cell-based, human", "settings": "12.5 or 25 μM, up to 7 days", "experimental": "THP-1 monocytes in suspension were plated in 8-well chambered slides. […] Media containing appropriate treatment compounds was replaced after 4 days. After 4 days treatment, morphologic changes of the adherent cells were assessed by phase-contrast microscopy and photographed using an Olympus Microfire digital camera."}, "[2]": {"tested_on": "T-lymphocyte cell line (Jurkat E6.1)", "assay": "LDH release cytotoxicity assay, Jurkat", "type": "cell-based", "settings": "concentration range of FIG. 6B (0-100 μM)", "experimental": "(§1) Cytotoxicity assays. WI-L2 human B-lymphocyte line, HAAE-1 human abdominal aortic endothelial line, MH-S murine alveolar macrophage line, and J774A.1 murine tissue macrophage line were obtained from the ATCC. Human aortic endothelial cells (HAEC) and human vascular smooth muscle cells (VSMS) were obtained from Cambrex Bio Science. Jurkat E6-1T-lymphocytes were kindly provided by Dr. J. Kaye (The Scripps Research Institute). Cells were cultured in ATCC-recommended media with 10% fetal calf serum. Cells were incubated in a controlled atmosphere at 37° C., with 5 or 7% CO2. For lactate dehydrogenase (LDH) release assays, adherent cells were harvested either by addition of 0.05% trypsin/EDTA or by scraping. The cells obtained were seeded onto 96-well microtiter plates (25,000 cells/well) and allowed to recover for 24-48 h. […] Cytotoxicity was then determined by measuring lactate dehydrogenase (LDH) release from cells in culture. […] 100% Cytotoxicity was defined as the maximum amount of LDH released by dead cells as shown by trypan blue exclusion, or the highest amount of LDH detected upon lysis of cells by 0.9% Triton X-100. The IC50 values were determined by comparison of the raw duplicate data for concentration versus cytotoxicity (%) to non-linear regression analysis (Hill plot) using Graphpad v3.0 software for Macintosh. […]"}, "[3]": {"tested_on": "ICAM-1 (CD54)", "assay": "Endothelial adhesion molecule expression by ELISA, ICAM-1", "type": "cell-based, human", "settings": "HAAE-1, not complexed with LDL", "experimental": "(§2) Endothelial cell surface adhesion molecule expression was measured by ELISA, using anti-human CD54 (ICAM-1), CD106 (VCAM-1) and CD62E (E-Selectin) antibodies (Leinco Technologies, Inc., St. Louis, Mo.). The ELISA method was modified from previously described procedures.\n(§3) Cells were then incubated with antibodies to VCAM-1, E-selectin, or ICAM-1 diluted 1:400 in PBS containing 5% FCS at 37° C. for 30 min. Wells were washed two times with PBS, then incubated with horseradish peroxidase (HRP)-conjugated goat anti-mouse IgG (Southern Biotechnology Associates, Birmingham, Ala., USA) in PBS/5% FCS at 37° C. for 30 min. The wells were washed four times with PBS, then incubated with H2O2/3,3′,5,5′-tetramethyl-benzidine peroxidase substrate (Pierce Chemical, Rockford, Ill., USA) for 30 min in the dark. The reaction was stopped by adding 25 μl of 8 N H2SO4, and the plates read on a microplate reader, blanking on wells stained with only secondary antibody. Each assay was performed in triplicate and the data are reported as the mean±SEM as a percentage of the expression level of the vehicle. To study the effect of cholesterol ozonation product 5a concentration (5-50 μM) on E-selectin expression, the assay was performed in an identical fashion as described above, with each point being the mean±SEM of at least duplicate measurements."}, "[4]": {"tested_on": "WI-L2 human B-lymphocyte line", "assay": "LDH release cytotoxicity assay, WI-L2", "type": "cell-based", "settings": "B-cell (WI-L2) cell line, concentration range of FIG. 6A (0-100 μM)", "experimental": "as §1"}, "[5]": {"tested_on": "VCAM-1 (CD106)", "assay": "Endothelial adhesion molecule expression by ELISA, VCAM-1", "type": "cell-based, human", "settings": "HAAE-1, not complexed with LDL", "experimental": "as §2, §3"}, "[6]": {"tested_on": "E-selectin (CD62E)", "assay": "Endothelial adhesion molecule expression by ELISA, E-selectin", "type": "cell-based, human", "settings": "HAAE-1, not complexed with LDL", "experimental": "as §2, §3"}}}
{"smiles": "CC(C)CCC[C@@H](C)[C@H]1CC[C@H]2[C@@H]3CC=C4C[C@@H](O)CC[C@]4(C)[C@H]3CC[C@]12C", "note": "[compound 3, cholesterol, reference compound]", "values": [{"measurement": "THP-1 monocyte differentiation into macrophages (adherence, morphology)", "setting": "[1]", "value": "neither became adherent nor developed the aforementioned morphological changes"}, {"measurement": "cytotoxicity", "setting": "[2]", "value": "No cytotoxicity"}, {"measurement": "integrin expression (ICAM-1)", "setting": "[3]", "value": "no effects"}, {"measurement": "cytotoxicity", "setting": "[4]", "value": "No cytotoxicity"}, {"measurement": "integrin expression (VCAM-1)", "setting": "[5]", "value": "no effects"}, {"measurement": "selectin (E-selectin) expression", "setting": "[6]", "value": "no effects"}]}
